Source: patent publication US20040186022A1, “Enhanced herbicides” (priority 1999, published 2004)
Where “and” joins values, the source holds several entries; their conditions need not be identical. Equal values may be shown once. One block for each compound: values may come before it.

Tests used:
[1] = tested on: plants; test: Synergistic relationship between succinic acid and caprylic/capric acids C/C, herbicidal activity; format: in vivo
Source text: (§1) The herbicides were applied in the “spray to drip” amount or at a calibrated 20-60 gallons/acre. “Spray to drip” is an uncalibrated application of fluid to foliage, where sufficient spray volume is used to sufficiently saturate the foliage surface until excess fluid begins to drip from the foliage.

[2] = tested on: young potato plants; test: Effects of desiccants and desiccant combinations with other compounds on young potato plants; format: in vivo; set-up: All evaluations (total score): scale not given here
Source text: as §1

[3] = tested on: snapbean and potato plants; test: Enhancement of Scythe's herbicidal activity by selected compounds; format: in vivo; set-up: Totals, all evaluations, Beans / Totals, all evaluations, Potatoes / Totals, all evaluations, All / evaluation, 2 days, beans / evaluation, 2 days, potatoes / evaluation, 11 days, beans / evaluation, 11 days, potatoes / evaluation, 15 days, beans / evaluation, 15 days, potatoes: scale not given here
Source text: as §1

[4] = tested on: black beans (dry bean variety T39); test: Synergistic interactions of succinic acid and di-ammonium succinate with other herbicidal compounds, dry beans (black); format: in vivo; settings: for Injury rating, average per plot: scale 1-5
Source text: as §1

[5] = tested on: navy dry beans (navy Vista); test: Synergistic interactions of succinic acid and di-ammonium succinate with herbicidal compounds, navy dry beans; format: in vivo, dry bean (navy); settings: for Injury rating, average per plot: scale 1-5
Source text: as §1

[6] = tested on: 60 G/a: velvetleaf, black nightshade, redroot pigweed, foxtail and snapbeans; spray to drip: black nightshade, velvetleaf, foxtail and snapbeans; test: Efficacy of 1.5% succinic acid with oleic, caprylic or pelargonic acid in an emulsification system (Emsorb 6900); format: in vivo; set-up: Injury rating, total score for 2 evaluation, Spray to drip / Injury rating, total score for 2 evaluation, Total Rating: scale not given here
Source text: as §1

[7] = tested on: plants; test: Herbicidal activity: comparison of caprylic, pelargonic and an equimolar mixture of caprylic and pelargonic acids; format: in vivo; settings: for Injury ratings based on 2 independent evaluations, 40 G/acre: 40 G/acre: chickweed, lambsquarter and green foxtail; for Injury ratings based on 2 independent evaluations, 40 G/acre / Injury ratings based on 2 independent evaluations, 60 G/acre: redroot pigweed, each pot rated 1 to 5; for Injury ratings based on 2 independent evaluations, 60 G/acre: 60 G/acre: chickweed, lambsquarter, green foxtail, crabgrass and wheat; for Average rating per pot: rating 1 to 5, 5 = complete desiccation of all plants
Source text: The herbicides were applied in the “spray to drip” amount or at a calibrated 20-60 gallons/acre. “Spray to drip” is an uncalibrated application of fluid to foliage, where sufficient spray volume is used to sufficiently saturate the foliage surface until excess fluid begins to drip from the foliage. In general, about 5 to 200 gallons/acre, preferably 20-100 gallons/acre can be effective.

[8] = tested on: 40 G/a: crab grass, pigweed, chick weed and foxtail; 60 G/a: pigweed, Kentucky bluegrass, foxtail, crab grass and barnyard grass; spray to drip: Kentucky …; test: Herbicidal activities: synergy between succinic acid and pelargonic acid; format: in vivo; set-up: Total injury ratings, 60 G/a / Total injury ratings, Spray to drip / Total injury ratings, Total: scale not given here
Source text: as §1

[9] = tested on: soybeans; test: Synergistic relationships between succinic acid and caprylic acid at different application rates, testing soybeans; format: in vivo; settings: 2 days after a single foliar application, average of 2 sites, soybean Stine 2250; for Overall Effect: 5 equals profound desiccation
Source text: as §1

[10] = tested on: Dry Beans; test: Synergistic relationship between succinic or citric acid and caprylic acid, testing dry beans; format: in vivo; settings: 3 days after single foliar application, dry bean Vista; for Green Foliage, Overall Effect / Yellow Foliage, Overall Effect: 5 equals profound desiccation
Source text: as §1

[11] = Measurement of pH values for test desiccants (Example 55); format: physicochemical
[12] = tested on: soybeans; test: Synergy comparisons of various organic acids with caprylic acid, testing soybeans; format: in vivo; settings: 3 days after a single foliar application, average of 2 sites, soybean Stine 2250; for Overall Effect: 5 equals profound desiccation
Source text: as §1

[13] = tested on: chickweed, redtop, velvetleaf, crabgrass and green foxtail; test: Enhancement of herbicidal activity of caprylic/capric acids (c/c) using selected compounds at equimolar amounts; format: in vivo; set-up: Relative injury ratings, Day #4 / Relative injury ratings, Day #5: scale not given here; settings: for Relative injury ratings, Day #2: Day 2 after treatment, 40 G/acre, 8 pots, rating 1-5 per pot, […] Emsorb 6900, […] mineral oil; for Relative injury ratings, Day #4: Day 4 after treatment; for Relative injury ratings, Day #5: Day 5 after treatment; for Average rating per pot: scale 1-5
Source text: as §1

[14] = Day 2, one application at 40 G/acre, treatments 1-4, 9-11 in Emsorb 6900/mineral oil/Hasten, 5-8, 12-14 in 0.3% Sylgard 309
[15] = Day 1, one application at 40 G/acre, treatments 1-4, 9-11 in Emsorb 6900/mineral oil/Hasten, 5-8, 12-14 in 0.3% Sylgard 309

Structure (SMILES): O=C([O-])c1ccccc1O.[Na+] [0.5% sodium salicylate]
Injury ratings, Total ([1]; 40 G/a + 60 G/a): 1.5 | Injury ratings based on 2 independent evaluations, 40 G/a ([1]; 40 G/acre: Canadian thistle, velvet leaf, Johnson grass and giant foxtail, each pot rated 1 to 5): 1 | Injury ratings based on 2 independent evaluations, 60 G/a ([1]; 60 G/acre: velvetleaf, Johnson grass and giant foxtail, each pot rated 1 to 5): 0.5 | Average rating per pot ([1]; rating 1 to 5, 5 = complete desiccation of all plants): 0.04

Structure (SMILES): CCCCCCCC(=O)O [1% caprylic]
Injury ratings of treated plants, day 1 ([2]; 1 day after application, 6 = complete desiccation): 2 | Injury ratings of treated plants, day 3 ([2]; 3 days after application, 6 = complete desiccation): 3 | Injury ratings of treated plants, day 6 ([2]; 6 days after application, 6 = complete desiccation): 2 | Injury ratings of treated plants, day 17 ([2]; 17 days after application, 6 = complete desiccation): 2.5 | Injury ratings of treated plants, day 22 ([2]; 22 days after application, 6 = complete desiccation): 3 | Injury ratings of treated plants, day 27 ([2]; 27 days after application, 6 = complete desiccation): 3 | Injury ratings of treated plants, […] ([2]; […] after application, 6 = complete desiccation): 2 | All evaluations (total score) ([2]; total of all evaluation times): 17.5

Structure (SMILES): O=C([O-])c1ccccc1O.[Na+] [2% NaSalicylate]
Totals, all evaluations, All ([3]; beans + potatoes): 7.5 | evaluation, 2 days, potatoes ([3]; potato, 2 days after application, 40 gallons/acre): 1 | evaluation, 11 days, potatoes ([3]; potato, 11 days after application, 40 gallons/acre): 1 | evaluation, 15 days, potatoes ([3]; potato, 15 days after application, 40 gallons/acre): 1 | evaluation, […], potatoes ([3]; potato, […] after application, 40 gallons/acre, 6 = complete desiccation): 0 | Totals, all evaluations, Potatoes ([3]; potato, total of 4 evaluation times): 3 | evaluation, 2 days, beans ([3]; snapbean, 2 days after application, 40 gallons/acre): 1 | evaluation, 11 days, beans ([3]; snapbean, 11 days after application, 40 gallons/acre): 1.5 | evaluation, 15 days, beans ([3]; snapbean, 15 days after application, 40 gallons/acre): 1 | evaluation, […], beans ([3]; snapbean, […] after application, 40 gallons/acre, 6 = complete desiccation): 1 | Totals, all evaluations, Beans ([3]; snapbean, total of 4 evaluation times): 4.5

Structure (SMILES): N.N.O=C(O)CCC(=O)O [2.52% di-ammonium succinate, di-ammonium succinate]
Injury rating, average per plot [4, 14]: 0 | % desiccation (Day 12), foliage [4]: 0% | % desiccation (Day 12), pods [4]: 0% | % desiccation (Day 12), vines [4]: 0% | Injury rating, average per plot ([4]; Day 12): 0 | Injury rating, average per plot [5, 15]: 0 | Injury rating, average per plot ([5]; Day 2): 0 | Injury rating, average per plot ([5]; Day 3): 0 | Injury rating, average per plot ([5]; Day 4): 0 | % desiccation (Day 12), foliage [5]: 0% | % desiccation (Day 12), pods [5]: 0% | % desiccation (Day 12), vines [5]: 0% | Injury rating, average per plot ([5]; Day 12): 0

Structure (SMILES): CCCCCCCC/C=C\CCCCCCCC(=O)O [3% oleic, oleic acid]
Injury rating, total score for 2 evaluation, Total Rating ([6]; 60 G/a plus spray to drip): 33.6 | Injury rating, total score for 2 evaluation, 60 G/a ([6]; 60 G/a, rating 1-5 per pot, 1% Emsorb, 0.3% Hasten): 24.2 | Average rating per pot ([6]; scale 1-5): 1.2 | Injury rating, total score for 2 evaluation, Spray to drip ([6]; spray to drip): 9.4

Structure (SMILES): O=C([O-])c1ccccc1O.[Na+] [3% sodium salicylate, sodium salicylate]
Injury rating, average per plot [4, 14]: 4 | % desiccation (Day 12), foliage [4]: 95% | % desiccation (Day 12), pods [4]: 90% | % desiccation (Day 12), vines [4]: 90% | Injury rating, average per plot ([4]; Day 12): 4.78 | Injury rating, average per plot [5, 15]: 3.8 | Injury rating, average per plot ([5]; Day 2): 4.13 | Injury rating, average per plot ([5]; Day 3): 4.57 | Injury rating, average per plot ([5]; Day 4): 4.5 | % desiccation (Day 12), foliage [5]: 92% | % desiccation (Day 12), pods [5]: 90% | % desiccation (Day 12), vines [5]: 70% | Injury rating, average per plot ([5]; Day 12): 4.7

Structure (SMILES): CCCCCCCCC(=O)O [3.375% pelargonic]
Injury ratings based on 2 independent evaluations, 40 G/acre [7]: 43 | Injury ratings based on 2 independent evaluations, 60 G/acre [7]: 53.6 | Average rating per pot [7]: 4.41

Structure (SMILES): CCCCCCCCC(=O)O [4% pelargonic acid, pelargonic acid]
Total injury ratings, Total ([8]; 40 G/a, 60 G/a and spray to drip): 153.4 | Total injury ratings, 40 G/a ([8]; 40 G/a, 9 pots/treatment, rating 1-5 per pot, 1.125% Emsorb 6900): 41.6 | Total injury ratings, 60 G/a ([8]; 60 G/a, 10 pots/treatment): 45.6 | Total injury ratings, Spray to drip ([8]; spray to drip, 7 pots/treatment): 66.2

Structure (SMILES): CCCCCCCCC(=O)O [4.5% pelargonic]
Injury ratings based on 2 independent evaluations, 40 G/acre [7]: 45.1 | Injury ratings based on 2 independent evaluations, 60 G/acre [7]: 53.9 | Average rating per pot [7]: 4.51

Structure (SMILES): CCCCCCCC(=O)O [Caprylic Acid (0.2%)]
Foliage Affected (%) [9]: 1.25% | Overall Effect [9]: 0.5

pH Value [11]: 3.55 and 3.30
Structure (SMILES): CCCCCCCC(=O)O [Caprylic Acid (0.5%)]
Green Foliage, Foliage Affected (%) [10]: 10-15% | Yellow Foliage, Foliage Affected (%) [10]: 70% | Green Foliage, Overall Effect [10]: 2.5 | Yellow Foliage, Overall Effect [10]: 2 | Foliage Affected (%) [12]: 5% | Overall Effect [12]: 1.5 | Foliage Affected (%) [9]: 9% | Overall Effect [9]: 2.25

pH Value [11]: 1.64
Structure (SMILES): O=C(O)CC(O)(CC(=O)O)C(=O)O [Citric Acid (0.5%)]
Green Foliage, Foliage Affected (%) [10]: 0% | Yellow Foliage, Foliage Affected (%) [10]: 0% | Green Foliage, Overall Effect [10]: 0 | Yellow Foliage, Overall Effect [10]: 0

Structure (SMILES): O=C(O)CC(O)(CC(=O)O)C(=O)O [CitricAcid (0.5%)]
Foliage Affected (%) [12]: 0% | Overall Effect [12]: 0

pH Value [11]: 1.93
Structure (SMILES): C[C@H](O)C(=O)O [L-Lactic Acid (0.5%)]
Foliage Affected (%) [12]: 0% | Overall Effect [12]: 0

Structure (SMILES): C[C@H](O)C(=O)O [L-Lactic Acid (1.0%)]
Foliage Affected (%) [9]: 1.25% | Overall Effect [9]: 0.5

pH Value [11]: 1.69
Structure (SMILES): O=C(O)CC(O)C(=O)O [L-Malic Acid (0.5%)]
Foliage Affected (%) [12]: 0% | Overall Effect [12]: 0

Structure (SMILES): O=C([O-])c1ccccc1O.[Na+] [Na Salicylate (0.5%)]
Green Foliage, Foliage Affected (%) [10]: 5-10% | Yellow Foliage, Foliage Affected (%) [10]: 30% | Green Foliage, Overall Effect [10]: 2 | Yellow Foliage, Overall Effect [10]: 1

Structure (SMILES): O=C([O-])c1ccccc1O.[Na+] [Na Salicylate (2%)]
Green Foliage, Foliage Affected (%) [10]: 90% | Yellow Foliage, Foliage Affected (%) [10]: >90% | Green Foliage, Overall Effect [10]: 5 | Yellow Foliage, Overall Effect [10]: 5

Structure (SMILES): O=C(O)CCC(=O)O [Succinic Acid (0.5%)]
Green Foliage, Foliage Affected (%) [10]: 0% | Yellow Foliage, Foliage Affected (%) [10]: 0% | Green Foliage, Overall Effect [10]: 0 | Yellow Foliage, Overall Effect [10]: 0 | pH Value [11]: 1.94 | Foliage Affected (%) [12]: 0% | Overall Effect [12]: 0

Structure (SMILES): N.N.O=S(=O)(O)O [ammonium sulfate (1.12%), ammonium sulfate]
Relative injury ratings, Day #2 [13]: 0 | Relative injury ratings, Day #4 [13]: 0 | Relative injury ratings, Day #5 [13]: 0 | Average rating per pot [13]: 0

Structure (SMILES): N.N.O=C(O)C(O)C(O)C(=O)O (centres unmarked) [ammonium tartrate (1.42%), ammonium tartrate]
Relative injury ratings, Day #2 [13]: 0 | Relative injury ratings, Day #4 [13]: 0 | Relative injury ratings, Day #5 [13]: 0 | Average rating per pot [13]: 0

Structure (SMILES): N.N.O=C(O)CCC(=O)O [di-ammonium succinate (1.26%), di-ammonium succinate]
Relative injury ratings, Day #2 [13]: 0 | Relative injury ratings, Day #4 [13]: 0 | Relative injury ratings, Day #5 [13]: 0 | Average rating per pot [13]: 0
